For assay [1], the system named is crabgrass, large. The assay can be described thus: Test A postemergence. Type of assay: in vivo, Digitaria sanguinalis. The procedure, abridged: (§1)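 Both timings tested concurrently in loam/sand soil: preemergence by directed soil spray, postemergence on plants of 2–10 cm at the one- to two-leaf stage. Greenhouse holding period was approximately 10 days before visual injury assessment (0–100, 0 = no effect).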

The subject of assay [2] is barnyardgrass. The assay can be described thus: Test A postemergence. The assay is classed as in vivo, Echinochloa crus-galli. The note with it: Postemergence. The method, boiled down:
as §1

In assay [3] the test system is morningglory. The assay can be described thus: Test A postemergence. The assay is classed as in vivo, Ipomoea spp. The procedure, abridged:
as §1

Assay [4] has as its system pigweed. Put plainly: Test A postemergence. The assay is classed as in vivo, Amaranthus retroflexus. The procedure, abridged: as §1
Assay [5] concerns velvetleaf. Put plainly: Test A postemergence. Type of assay: in vivo, Abutilon theophrasti. The procedure, abridged: as §1
Assay [6] concerns foxtail, giant. The assay can be described thus: Test A preemergence. Type of assay: in vivo, Setaria faberii. The settings on record: 0 to 100 scale. The method, boiled down:
as §1

The subject of assay [7] is velvetleaf. Put plainly: Test A preemergence. The assay is classed as in vivo, Abutilon theophrasti. The note with it: 0 to 100 scale. The method, boiled down: as §1
Assay [8] has as its system barnyardgrass. Put plainly: Test A preemergence. The settings on record: 0 to 100 scale. The assay is classed as in vivo, Echinochloa crus-galli. The procedure, abridged: as §1
In assay [9] the test system is morningglory. Put plainly: Test A preemergence. Type of assay: in vivo, Ipomoea spp. The settings on record: 0 to 100 scale. The procedure, abridged:
as §1

In assay [10] the test system is wheat. Put plainly: Test A postemergence. Type of assay: in vivo, Triticum aestivum. The method, boiled down:
as §1

The test system of assay [11] is crabgrass, large. Put plainly: Test A preemergence. The assay is classed as in vivo, Digitaria sanguinalis. The settings on record: 0 to 100 scale. The procedure, abridged: as §1
Assay [12] deals with corn. The assay can be described thus: Test A postemergence. Type of assay: in vivo, Zea mays. The procedure, abridged:
as §1

Assay [13] has as its system corn. Put plainly: Test A preemergence. The assay is classed as in vivo, Zea mays. The settings on record: 0 to 100 scale. The procedure, abridged:
as §1

Assay [14] concerns wheat. The assay can be described thus: Test A preemergence. The assay is classed as in vivo, Triticum aestivum. The settings on record: 0 to 100 scale. The method, boiled down: as §1
For assay [15], the system named is foxtail, giant. Put plainly: Test A postemergence. Type of assay: in vivo, Setaria faberii. The procedure, abridged:
as §1

The subject of assay [16] is pigweed. Put plainly: Test A preemergence. The assay is classed as in vivo, Amaranthus retroflexus. The settings on record: Preemergence, 0 to 100 scale, 0 no effect, 100 complete control. The method, boiled down:
as §1

The mark [17] stands for this setting: Postemergence, 1000 g ai/ha, visual rating after approx. 10 days, 0 to 100 scale (0 no effect, 100 complete control).
Where [18] appears, read: 1000 g ai/ha, visual rating after approx. 10 days, 0 to 100 scale (0 no effect, 100 complete control).
[19] abbreviates: Preemergence, 1000 g ai/ha, 0 no effect, 100 complete control.
The mark [20] stands for this setting: Postemergence, 500 g ai/ha, visual rating after approx. 10 days, 0 to 100 scale (0 no effect, 100 complete control).
The mark [21] stands for this setting: postemergence, 125 g ai/ha, about 10 days, visual rating on 0 to 100 scale (0 no effect, 100 complete control).
[22] abbreviates: Preemergence, 500 g ai/ha, 0 no effect, 100 complete control.
[23] abbreviates: preemergence, 125 g ai/ha, visual injury, approx. 10 days.

`CCc1cc(C(=O)N(C)CC)nn1Cc1cccc(C(F)(F)F)c1` [Compound 42]: the “Crabgrass, Large plant response rating” value in assay [1] (setting [17]) is 50; in assay [11] (setting [19]), 40. For the same compound, the entries for the “Barnyardgrass plant response rating” value in assay [2] (setting [18]) and in assay [8] (setting [19]) were 20 and 0, respectively. In addition, the figures for the “Morningglory plant response rating” value in assay [3] (setting [17]) and in assay [9] (setting [19]) were 60 and 30, respectively. The “Pigweed plant response rating” value in assay [4] (setting [17]) worked out at 60; in assay [16] (1000 g ai/ha), 10. Also, the “Velvetleaf plant response rating” value in assay [5] (setting [17]) is 40; in assay [7] (setting [19]), 0. Besides, the “Foxtail, Giant plant response rating” value in assay [6] (setting [19]) and in [15] (setting [17]) was 30 throughout. The “Wheat plant response rating” value in [10] (setting [17]) and in assay [14] (setting [19]) was 0 throughout. In addition, the “Corn plant response rating” value in [12] (setting [17]) stood at 30; in assay [13] (setting [19]) it was 0.
In the case of `O=C(NC1CC1)c1cc(C2CC2)n(Cc2cccc(OC(F)(F)F)c2)n1` [Compound 37], the “Crabgrass, Large plant response rating” value in assay [1] (setting [17]) was found to be 20; in assay [11] (setting [19]) it was 40. Besides, the entries for the “Barnyardgrass plant response rating” value in assay [2] (setting [18]) and in assay [8] (setting [19]) were 10 and 0, respectively. The “Morningglory plant response rating” value in assay [3] (setting [17]) is 80; in assay [9] (setting [19]), 0. The figures for the “Pigweed plant response rating” value in assay [4] (setting [17]) and in [16] (1000 g ai/ha) were 100 and 20, respectively. For the same compound, the “Velvetleaf plant response rating” value in assay [5] (setting [17]) amounted to 70; in assay [7] (setting [19]), 0. Besides, the “Foxtail, Giant plant response rating” value in assay [6] (setting [19]) is recorded as 30; in [15] (setting [17]), 10. In addition, the “Wheat plant response rating” value in [10] (setting [17]) came to 20; in assay [14] (setting [19]) it was 0. In addition, the “Corn plant response rating” value in assay [12] (setting [17]) came to 30; in assay [13] (setting [19]), 0.
With `CCc1cc(C(=O)NC(C)(C)C)nn1Cc1cccc(C(F)(F)F)c1` [Compound 50], the “Crabgrass, Large plant response rating” value in assay [1] (setting [17]) and in assay [11] (setting [19]) was 10 each time. Also, the “Barnyardgrass plant response rating” value in assay [2] (setting [18]) and in [8] (setting [19]) was 10 each time. The “Morningglory plant response rating” value in [3] (setting [17]) turned out to be 10; in [9] (setting [19]) it was 0. Further, the figures for the “Pigweed plant response rating” value in assay [4] (setting [17]) and in assay [16] (1000 g ai/ha) were 30 and 0, respectively. Also, the entries for the “Velvetleaf plant response rating” value in assay [5] (setting [17]) and in assay [7] (setting [19]) were 10 and 0, respectively. The “Foxtail, Giant plant response rating” value in [6] (setting [19]) and in assay [15] (setting [17]) was 30 in each case. Besides, the “Wheat plant response rating” value in assay [10] (setting [17]) and in [14] (setting [19]) was 0 throughout. Moreover, the entries for the “Corn plant response rating” value in assay [12] (setting [17]) and in [13] (setting [19]) were 20 and 0, respectively.
Consider `Cc1cc(C(=O)NCC(F)(F)F)nn1Cc1cccc(C(F)(F)F)c1F` [Compound 9], for which the “Crabgrass, Large plant response rating” value in assay [1] (setting [20]) turned out to be 0; in assay [1] (setting [21]) it was 0; in [11] (setting [22]), 20; in [11] (setting [23]), 0. Also, the “Barnyardgrass plant response rating” value in assay [2] (125 g ai/ha, 0 to 100 scale, 0 no effect, 100 complete control) amounted to 0; in [2] (500 g ai/ha, visual rating after approx. 10 days, 0 to 100 scale (0 no effect, 100 complete control)) it was 10; in [8] (setting [22]) it was 10; in [8] (setting [23]), 0. Further, the “Morningglory plant response rating” value in [3] (setting [20]) turned out to be 10; in assay [3] (setting [21]), 0; in assay [9] (setting [22]), 0; in assay [9] (setting [23]), 0. In addition, the “Pigweed plant response rating” value in [4] (setting [20]) is on record as 0; in assay [4] (setting [21]) it was 0; in [16] (500 g ai/ha), 30. For the same compound, the “Velvetleaf plant response rating” value in assay [5] (setting [20]), in [5] (setting [21]), in assay [7] (setting [22]) and in [7] (setting [23]) was 0 throughout. The “Foxtail, Giant plant response rating” value was determined as 20 in [6] (setting [22]), 0 in assay [6] (setting [23]), 0 in assay [15] (setting [20]) and 0 in assay [15] (setting [21]). Besides, the “Wheat plant response rating” value in [10] (setting [20]), in [10] (setting [21]) and in [14] (setting [23]) was 0 in each case. The “Corn plant response rating” value in assay [12] (setting [20]), in assay [12] (setting [21]), in assay [13] (setting [22]) and in [13] (setting [23]) was 0 throughout.
With `C#CCNC(=O)c1cc(CC)n(Cc2cccc(C(F)(F)F)c2)n1` [Compound 41], the “Crabgrass, Large plant response rating” value turned out to be 20 in [1] (setting [17]) and 30 in assay [11] (setting [19]). Besides, the “Barnyardgrass plant response rating” value in assay [2] (setting [18]) and in assay [8] (setting [19]) was 10 in each case. The “Morningglory plant response rating” value is 100 in assay [3] (setting [17]) and 20 in assay [9] (setting [19]). The “Pigweed plant response rating” value in [4] (setting [17]) amounted to 30; in assay [16] (1000 g ai/ha), 10. Further, the figures for the “Velvetleaf plant response rating” value in [5] (setting [17]) and in assay [7] (setting [19]) were 10 and 0, respectively. For the same compound, the “Foxtail, Giant plant response rating” value in assay [6] (setting [19]) was 50; in assay [15] (setting [17]) it was 20. In addition, the “Wheat plant response rating” value in assay [10] (setting [17]) is on record as 10; in assay [14] (setting [19]), 0. Moreover, the “Corn plant response rating” value in assay [12] (setting [17]) was found to be 20; in [13] (setting [19]) it was 0.
With `O=C(NCC(F)(F)F)c1cc(C2CC2)n(Cc2cccc(OC(F)(F)F)c2)n1` [Compound 36], the “Crabgrass, Large plant response rating” value was 30 in assay [1] (setting [17]) and 20 in assay [11] (setting [19]). Moreover, the entries for the “Barnyardgrass plant response rating” value in [2] (setting [18]) and in [8] (setting [19]) were 20 and 0, respectively. The entries for the “Morningglory plant response rating” value in assay [3] (setting [17]) and in assay [9] (setting [19]) were 90 and 0, respectively. Further, the “Pigweed plant response rating” value was 90 in assay [4] (setting [17]) and 30 in assay [16] (1000 g ai/ha). In addition, the “Velvetleaf plant response rating” value in assay [5] (setting [17]) came out at 60; in [7] (setting [19]), 0. Besides, the figures for the “Foxtail, Giant plant response rating” value in assay [6] (setting [19]) and in assay [15] (setting [17]) were 20 and 30, respectively. In addition, the “Wheat plant response rating” value in assay [10] (setting [17]) and in assay [14] (setting [19]) was 0 in each case. In addition, the entries for the “Corn plant response rating” value in assay [12] (setting [17]) and in assay [13] (setting [19]) were 20 and 0, respectively.
`C#CCNC(=O)c1cc(CC)n(Cc2cccc(OC(F)(F)F)c2)n1` [Compound 54]: the entries for the “Crabgrass, Large plant response rating” value in assay [1] (setting [17]) and in assay [11] (setting [19]) were 10 and 40, respectively. Also, the “Barnyardgrass plant response rating” value in assay [2] (setting [18]) and in assay [8] (setting [19]) was 10 each time. Besides, the “Morningglory plant response rating” value in assay [3] (setting [17]) is 70; in assay [9] (setting [19]) it was 0. The figures for the “Pigweed plant response rating” value in assay [4] (setting [17]) and in assay [16] (1000 g ai/ha) were 70 and 90, respectively. Further, the figures for the “Velvetleaf plant response rating” value in assay [5] (setting [17]) and in assay [7] (setting [19]) were 60 and 0, respectively. Moreover, the results for the “Foxtail, Giant plant response rating” value in assay [6] (setting [19]) and in assay [15] (setting [17]) were 20 and 10, respectively. For the same compound, the “Wheat plant response rating” value in [10] (setting [17]) worked out at 10; in [14] (setting [19]), 0. Also, the “Corn plant response rating” value in assay [12] (setting [17]) is reported as 20; in assay [13] (setting [19]) it was 0.

These data come from US20150105252A1, “SUBSTITUTED PYRAZOLES AS HERBICIDES” (E I DU PONT DE NEMOURS AND COMPANY, priority 2013, published 2015).
